Test results as given in US20200255436A1, “CORTICOTROPIN RELEASING FACTOR RECEPTOR ANTAGONISTS” (Spruce Biosciences, Inc., priority 2019, published 2020).
Read-outs that look alike come from different tables or passages of the source.

Key:
[1] = Study 2 Part A: multiple-dose (14 days) pharmacokinetics; assay type: in vivo, human; settings: for AUC(0-t): read-out: AUC0-24h; for Tmax: median; for concentration at 14 day: read-out: Cavg; for half-life: po, half-life calculated by accumulation ratio, read-out: Effective t1/2 (converted)
Protocol: The 2-part multiple-dose study, Study 2, determined the safety and tolerability of repeated daily doses of Compound 1 and investigated the effects on biomarkers of relevance for the treatment of alcohol dependence.
PK were also evaluated in the multiple-dose, dose-escalation study, Study 2. In Part A of the study, subjects were divided into 3 cohorts and received 50, 150, or 200 mg Compound 1 or placebo for 14 consecutive days (at least 6 subjects received Compound 1 and 2 subjects received placebo in each cohort). […] All dosing occurred in the fed state. An assessment of diurnal cortisol levels, plus when under conditions of glucose clamp, were also carried out both prior to and during the dosing period.
Consistent with the single-dose study (Study 1), concentrations appeared to decline in a bi-exponential manner, characterized by a rapid decrease within the first 24 hours. […] The Tmax appeared to be consistent across doses. Overall half-lives, weight normalized CL/F and V/F were consistent for 150 and 200 mg. However, the values for these latter 2 parameters were almost doubled at the 50-mg dose level. Variability (CV%) for apparent clearance and volume of distribution were large and not reduced with weight-normalization.
Table 8 presents the results of the dose proportionality assessment for the AUC0-24 and Cmax over the tested dose range.

CRF1 receptor = biological target: T1, CRF1 receptor (Homo sapiens, UniProt P34998); experiment: Phase 2 study in adults with classic CAH: ACTH, 17-OHP, androstenedione response; assay type: in vivo; settings: patients with classic CAH
T1 construct: from tissue; host or cells: Human patients in vivo (anterior pituitary corticotrophs)
T1 sequence (P34998 24-415): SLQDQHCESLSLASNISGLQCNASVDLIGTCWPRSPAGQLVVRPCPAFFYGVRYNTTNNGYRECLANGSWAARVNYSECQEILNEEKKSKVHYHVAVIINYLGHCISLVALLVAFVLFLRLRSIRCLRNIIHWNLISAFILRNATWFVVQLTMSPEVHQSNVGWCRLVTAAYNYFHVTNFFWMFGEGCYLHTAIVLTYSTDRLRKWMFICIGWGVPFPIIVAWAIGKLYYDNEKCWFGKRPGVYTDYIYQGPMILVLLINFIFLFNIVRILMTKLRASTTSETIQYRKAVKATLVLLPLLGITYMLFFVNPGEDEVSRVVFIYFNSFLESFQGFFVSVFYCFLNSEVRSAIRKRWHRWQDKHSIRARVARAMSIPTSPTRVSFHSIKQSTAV
Text: Cohort A of the Phase 2 Study includes a 6-week, multiple-dose, dose escalation study of Compound 1 for the treatment of adults with classic CAH. After screening, eligible patients will be enrolled into a 6-week treatment period followed by a 4-week washout/safety follow-up period.
This cohort will be conducted in approximately 9 patients, who will receive Compound 1 daily for up to 6 weeks. Compound 1 will be administered as an oral daily dose. Patients will undergo titration of Compound 1 through three escalating dosage strengths at 2-week intervals. Patients will have overnight PK/PD assessments performed at baseline, which include an pre-dose overnight assessment and a post-dose overnight assessment for PK/PD following administration of the first dose. At the end of each 2-week dosing period, patients will return for single overnight visits for steady-state PK/PD assessments. A follow-up outpatient visit will occur 30 days after their last dose. Upon completion of the initial cohort (Cohort A), the study will proceed to a multiple ascending dose (MAD) design with up to 3 sequential cohorts (Cohorts B, C, and D) to further evaluate the safety, PK, and PD of various SPROO1 dosing regimens and to identify an optimal dose regimen. Each cohort will undergo a 2-week run-in period, a 2-week treatment period, and a 30-day washout and safety follow-up period. During the run-in period, which will occur during screening, subjects will document in a paper diary each dose of glucocorticoid medication taken, the time of each meal, and the time they went to bed and woke up each day, to ensure compliance with background glucocorticoid regimens and the stability of their daily routine.
• 1. To evaluate the safety of Compound 1 in subjects with CAH. • 2. To assess the efficacy of Compound 1 in subjects with classic CAH as measured by percent and absolute change in 17-OHP compared to baseline.
• 3. To explore the dose(s) of Compound 1 that cause pharmacodynamics changes in plasma concentrations of ACTH, androstenedione, and testosterone, as measured by the absolute and percent change from baseline by dose. • 4. To determine pharmacokinetics of Compound 1 in subjects with CAH. • 5. To explore potential relationships between pharmacodynamics and pharmacokinetics.

[2] = human, plasma, oral, 50 mg, 50 mg daily, Day 14, geometric mean
[3] = human, plasma, oral, 50 mg, Day 1, geometric mean
[4] = human, plasma, oral, 150 mg, 150 mg daily, Day 14, geometric mean
[5] = human, plasma, oral, 150 mg, Day 1, geometric mean
[6] = human, plasma, oral, 200 mg, 200 mg daily, Day 14, geometric mean
[7] = human, plasma, oral, 200 mg, Day 1, geometric mean
[8] = human, plasma, oral, 50 mg daily, Day 14, geometric mean
[9] = human, plasma, oral, 150 mg daily, Day 14, geometric mean
[10] = human, plasma, oral, 200 mg daily, Day 14, geometric mean

For `CCC(CC)c1cc(C)nc2c(-c3sc(N4CCOCC4)nc3Cl)c(C)nn12` [Compound 1, 4-(4-chloro-5-(2,5-dimethyl-7-(pentan-3-yl)pyrazolo[1,5-a]pyrimidin-3-yl)thiazol-2-yl)morpholine], the “RA (accumulation ratio, Day 14 AUC0-24/Day 1 AUC0-24)” value ([1]; 50 mg daily) was 2.80, the CLaa/F ([1]; 50 mg daily, Day 14, geometric mean) was 183 L/h and the “WT-norm Claa/F” value ([1]; 50 mg daily, Day 14, weight normalized) was 2.88 L/h/kg. The “RA (accumulation ratio, Day 14 AUC0-24/Day 1 AUC0-24)” value ([1]; 150 mg daily) was 2.51, the CLaa/F ([1]; 150 mg daily, Day 14, geometric mean) was 101 L/h and the “WT-norm Claa/F” value ([1]; 150 mg daily, Day 14, weight normalized) was 1.42 L/h/kg. For the same compound, the “RA (accumulation ratio, Day 14 AUC0-24/Day 1 AUC0-24)” value ([1]; 200 mg daily) was 3.65, the CLaa/F ([1]; 200 mg daily, Day 14, geometric mean) was 98 L/h and the “WT-norm Claa/F” value ([1]; 200 mg daily, Day 14, weight normalized) was 1.50 L/h/kg. For the same compound, the Cmax [1, 2] was 50.3 ng/mL, the AUC(0-t) [1, 2] was 273 ng·h/mL and the Vd/F at 14 days ([1]; human, plasma, oral, 50 mg, 50 mg daily, Day 14, geometric mean, read-out: Vss/F) was 12900 L. The Tmax ([1]; human, plasma, oral, 50 mg, 50 mg daily, Day 14) was 5 h, the Vd/F at 14 days ([1]; human, plasma, oral, 50 mg, 50 mg daily, Day 14, weight normalized, read-out: WT-norm Vss/F) was 204 L/kg and the Cmax [1, 3] was 22.7 ng/mL. For the same compound, the AUC(0-t) [1, 3] was 97.6 ng·h/mL, the Tmax ([1]; human, plasma, oral, 50 mg, Day 1) was 4.52 h and the Cmax [1, 4] was 222 ng/mL. The AUC(0-t) [1, 4] was 1480 ng·h/mL, the Vd/F at 14 days ([1]; human, plasma, oral, 150 mg, 150 mg daily, Day 14, geometric mean, read-out: Vss/F) was 6170 L and the Vd/F at 14 days ([1]; human, plasma, oral, 150 mg, 150 mg daily, Day 14, geometric mean, read-out: Vz/F) was 17600 L. For the same compound, the Tmax ([1]; human, plasma, oral, 150 mg, 150 mg daily, Day 14) was 5 h, the Vd/F at 14 days ([1]; human, plasma, oral, 150 mg, 150 mg daily, Day 14, weight normalized, read-out: WT-norm Vss/F) was 86.5 L/kg and the Cmax [1, 5] was 127 ng/mL. For the same compound, the AUC(0-t) [1, 5] was 590 ng·h/mL, the Tmax ([1]; human, plasma, oral, 150 mg, Day 1) was 5 h and the Cmax [1, 6] was 314 ng/mL. The AUC(0-t) [1, 6] was 2040 ng·h/mL, the Vd/F at 14 days ([1]; human, plasma, oral, 200 mg, 200 mg daily, Day 14, geometric mean, read-out: Vss/F) was 5080 L and the Vd/F at 14 days ([1]; human, plasma, oral, 200 mg, 200 mg daily, Day 14, geometric mean, read-out: Vz/F) was 16300 L. For the same compound, the Tmax ([1]; human, plasma, oral, 200 mg, 200 mg daily, Day 14) was 5 h, the Vd/F at 14 days ([1]; human, plasma, oral, 200 mg, 200 mg daily, Day 14, weight normalized, read-out: WT-norm Vss/F) was 77.4 L/kg and the Cmax [1, 7] was 143 ng/mL. The AUC(0-t) [1, 7] was 559 ng·h/mL, the Tmax ([1]; human, plasma, oral, 200 mg, Day 1) was 5 h and the AUC(0-inf) [1, 8] was 980 ng·h/mL. The concentration at 14 day [1, 8] was 11.4 ng/mL, the AUC(0-inf) [1, 9] was 4680 ng·h/mL and the concentration at 14 day [1, 9] was 61.7 ng/mL. The AUC(0-inf) [1, 10] was 5660 ng·h/mL, the concentration at 14 day [1, 10] was 85 ng/mL and the half-life at 2 weeks ([1]; human, plasma, oral, following multiple daily dosing for 2 weeks) was > 4.17 days. It also gave a half-life ([1]; human, plasma, 50 mg daily, Day 14) of 2260 min, a half-life ([1]; human, plasma, 150 mg daily, Day 14) of 1960 min and a half-life ([1]; human, plasma, 200 mg daily, Day 14) of 3120 min. The “effect on morning rise in A4 (androstenedione)” value (CRF1 receptor) was “attenuates morning rise in A4”, the “subjects with 17-OHP within the guideline range (1200 ng/dL) after treatment” value (CRF1 receptor) was 50% and the “subjects with ACTH in the normal range after treatment” value (CRF1 receptor) was 40%. The “subjects with Androstenedione within normal reference range after treatment” value (CRF1 receptor) was 50%, the “subjects with more than 25% reduction in 17-OHP” value (CRF1 receptor) was 50% and the “subjects with more than 25% reduction in ACTH” value (CRF1 receptor) was 70%. For the same compound, the “subjects with more than 25% reduction in Androstenedione” value (CRF1 receptor) was 60%, the “subjects with reduction in 17-OHP” value (CRF1 receptor) was 80% and the “subjects with reduction in ACTH” value (CRF1 receptor) was 80%. The “subjects with reduction in Androstenedione” value (CRF1 receptor; at various doses) was 100%.
